Counter-ions that a name gives are not always drawn. ± gives the standard deviation of the averaged measurements.
Assays:
[1] = test system: 409B2 hiPSC (iCRISPR Cas9, FRMD7 editing); experiment: cell survival relative to solvent control (fold (ratio to mock)); higher = more surviving cells
Experimental: (§1)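 Subset screen of 55 drugs tested at 5 concentrations around the effective screening dose, in 409B2 iCRISPR Cas9 hiPSCs editing FRMD7 with a ssDNA donor. Drugs were applied for 24 h. Viability was read by resazurin and editing outcomes by amplicon sequencing (HDR, NHEJ <2 bp microhomology, MMEJ ≥2 bp microhomology). Values are relative to solvent mock controls; two biological replicates.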

[2] = test system: 409B2 hiPSC (iCRISPR Cas9, FRMD7 editing); experiment: NHEJ-attributed indel frequency relative to solvent control (fold (ratio to mock)); higher = more NHEJ outcomes
Experimental: as §1

[3] = test system: 409B2 hiPSC (iCRISPR Cas9, FRMD7 editing); experiment: MMEJ-attributed deletion frequency relative to solvent control (fold (ratio to mock)); higher = more MMEJ outcomes
Experimental: as §1

[4] = test system: 409B2 hiPSC (iCRISPR Cas9, FRMD7 editing); experiment: HDR (precise edit) frequency relative to solvent control (fold (ratio to mock)); higher = more homology-directed repair outcomes
Experimental: as §1

Compound	cell survival ([1]; 20 nM)	cell survival ([1]; 50 nM)	cell survival ([1]; 100 nM)	cell survival ([1]; 200 nM)	cell survival ([1]; 500 nM)	NHEJ-attributed indel frequency ([2]; 20 nM)	NHEJ-attributed indel frequency ([2]; 50 nM)	NHEJ-attributed indel frequency ([2]; 100 nM)	NHEJ-attributed indel frequency ([2]; 200 nM)	NHEJ-attributed indel frequency ([2]; 500 nM)	MMEJ-attributed deletion frequency ([3]; 20 nM)	MMEJ-attributed deletion frequency ([3]; 50 nM)	MMEJ-attributed deletion frequency ([3]; 100 nM)	MMEJ-attributed deletion frequency ([3]; 200 nM)	MMEJ-attributed deletion frequency ([3]; 500 nM)	HDR ([4]; 20 nM)	HDR ([4]; 50 nM)	HDR ([4]; 100 nM)	HDR ([4]; 200 nM)	HDR ([4]; 500 nM)	cell survival ([1]; 0.2 nM)	cell survival ([1]; 0.5 nM)	cell survival ([1]; 1 nM)	cell survival ([1]; 2 nM)	cell survival ([1]; 5 nM)	NHEJ-attributed indel frequency ([2]; 0.2 nM)	NHEJ-attributed indel frequency ([2]; 0.5 nM)	NHEJ-attributed indel frequency ([2]; 1 nM)	NHEJ-attributed indel frequency ([2]; 2 nM)	NHEJ-attributed indel frequency ([2]; 5 nM)	MMEJ-attributed deletion frequency ([3]; 0.2 nM)	MMEJ-attributed deletion frequency ([3]; 0.5 nM)	MMEJ-attributed deletion frequency ([3]; 1 nM)	MMEJ-attributed deletion frequency ([3]; 2 nM)	MMEJ-attributed deletion frequency ([3]; 5 nM)	HDR ([4]; 0.2 nM)	HDR ([4]; 0.5 nM)	HDR ([4]; 1 nM)	HDR ([4]; 2 nM)	HDR ([4]; 5 nM)
CS(=O)(=O)N1CCN(Cc2cc3nc(-c4cccc5[nH]ncc45)nc(N4CCOCC4)c3s2)CC1 [GDC-0941] (in DMSO)	0.924	0.877	0.7	0.444	0.15	0.978 ± 0.0067	0.99142 ± 0.00057	0.945 ± 0.042	0.94 ± 0.041	0.86 ± 0.063	1.02 ± 0.14	0.875 ± 0.054	0.874 ± 0.016	0.926 ± 0.2	0.887 ± 0.078	1.15 ± 0.048	1.08 ± 0.0031	1.08 ± 0.075	1.14 ± 0.076	1.06 ± 0.19																				
Cc1ccc(C(=O)N(CCCN)[C@@H](c2nc3cc(Cl)ccc3c(=O)n2Cc2ccccc2)C(C)C)cc1 (in DMSO)																					1.07	1.34	1.15	1.2	0.682	0.957 ± 0.046	0.989 ± 0.019	0.9925 ± 0.0038	1.012 ± 0.0086	1.07 ± 0.041	1.01 ± 0.086	0.901 ± 0.032	1.01 ± 0.076	0.864 ± 0.08	0.961 ± 0.13	1.1 ± 0.075	1.0454 ± 2.1e-05	1.08 ± 0.032	1.03 ± 0.032	1.18 ± 0.095
CC[N+](CC)(CC)CC [Tetraethylammonium chloride] (in EtOH)																					0.933	1.09	0.954	0.979	1.03	0.99 ± 0.026	0.996 ± 0.018	0.99607 ± 0.00072	1.007 ± 0.01	0.9965 ± 0.0079	1.05 ± 0.022	1.03 ± 0.11	0.964 ± 0.1	1.053 ± 0.0031	0.9894 ± 0.0011	1.11 ± 0.15	1.09 ± 0.19	1.02 ± 0.019	0.961 ± 0.11	0.922 ± 0.038
Nc1ccn([C@@H]2O[C@H](CO)[C@@H](O)[C@@H]2O)c(=O)n1 [Cytarabine hydrochloride] (in DMSO)	1.01	0.968	0.672	0.467	0.161	1.02 ± 0.026	1.05 ± 0.022	1.03 ± 0.0015	1.01 ± 0.039	1.04 ± 0.04	0.911 ± 0.12	0.897 ± 0.049	1.1 ± 0.021	1.08 ± 0.13	1.04 ± 0.18	0.71 ± 0.068	0.699 ± 0.1	0.625 ± 0.018	0.652 ± 0.11	0.554 ± 0.099																				

Reference: the supplement of paper PMC12698765
